Measured values from ChEMBL document CHEMBL1201862, “PubChem BioAssay data set” (2004).
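Five concentrations, 48 hours, 96-well plates. GI50 marks 50% less growth.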 Active and inactive are the calls of the source. Rule as the data show it: active = GI50 up to about 1.1 µM and inactive = higher.

What was measured:
Assay in all cases: NCI tumour cell line growth inhibition, 48 h
[1] = system: MCF7
[2] = system: OVCAR-5
[3] = system: DU-145
[4] = system: CAKI-1
[5] = system: SF-268
[6] = system: 786-0
[7] = system: OVCAR-8
[8] = system: Malme-3M
[9] = system: SN12C
[10] = system: COLO 205
[11] = system: LOX IMVI
[12] = system: SF-539
[13] = system: PC-3
[14] = system: NCI-H460
[15] = system: HL-60
[16] = system: HT-29
[17] = system: BT-549
[18] = system: HOP-92
[19] = system: SNB-75
[20] = system: K562
[21] = system: A498
[22] = system: HCC 2998
[23] = system: A549
[24] = system: RXF 393
[25] = system: SK-MEL-28
[26] = system: NCI/ADR-RES
[27] = system: UO-31
[28] = system: T47D
[29] = system: ACHN
[30] = system: MDA-MB-435
[31] = system: HOP-62
[32] = system: NCI-H226
[33] = system: SF-295
[34] = system: EKVX
[35] = system: SNB-19
[36] = system: SW-620
[37] = system: CCRF-CEM
[38] = system: NCI-H23
[39] = system: HCT-116
[40] = system: NCI-H522
[41] = system: TK-10
[42] = system: Hs-578T
[43] = system: U-251
[44] = system: SK-MEL-2
[45] = system: SK-MEL-5
[46] = system: KM12
[47] = system: M14
[48] = system: RPMI-8226
[49] = system: UACC-257
[50] = system: UACC-62
[51] = system: SR
[52] = system: OVCAR-3
[53] = system: MDA-MB-231
[54] = system: MOLT-4
[55] = system: MDA-N
[56] = system: IGROV-1
[57] = system: HCT-15

`CN(C)Cc1cc(/N=N/c2ccccc2)ccc1O` was tested, and the GI50 [1] was 89.1 µM (inactive), the GI50 [2] was 42.7 µM (inactive) and the GI50 [3] was 22.7 µM (inactive). The GI50 [4] was 62.4 µM (inactive), the GI50 [5] was 38.8 µM (inactive) and the GI50 [6] was 65.5 µM (inactive). For the same molecule, the GI50 [7] was 76.4 µM (inactive), the GI50 [8] was 47.3 µM (inactive) and the GI50 [9] was > 100 µM (inactive). For the same molecule, the GI50 [10] was 53 µM (inactive), the GI50 [11] was 26.7 µM (inactive) and the GI50 [12] was 67.3 µM (inactive). The GI50 [13] was 75.7 µM (inactive), the GI50 [14] was 40.5 µM (inactive) and the GI50 [15] was 41.5 µM (inactive). For the same molecule, the GI50 [16] was 32.4 µM (inactive), the GI50 [17] was 30.8 µM (inactive) and the GI50 [18] was 23.2 µM (inactive). The GI50 [19] was 10 µM (inactive), the GI50 [20] was 24.2 µM (inactive) and the GI50 [21] was 25.1 µM (inactive). For the same molecule, the GI50 [22] was 34.1 µM (inactive), the GI50 [23] was 92.9 µM (inactive) and the GI50 [24] was 3.94 µM (inactive). For the same molecule, the GI50 [25] was 51.4 µM (inactive), the GI50 [26] was 24.8 µM (inactive) and the GI50 [27] was 21.9 µM (inactive). The GI50 [28] was 44.1 µM (inactive), the GI50 [29] was 29 µM (inactive) and the GI50 [30] was 34.8 µM (inactive). For the same molecule, the GI50 [31] was 39.7 µM (inactive), the GI50 [32] was 95.9 µM (inactive) and the GI50 [33] was > 100 µM (inactive). The GI50 [34] was 40 µM (inactive), the GI50 [35] was > 100 µM (inactive) and the GI50 [36] was 57.7 µM (inactive). For the same molecule, the GI50 [37] was 42.3 µM (inactive), the GI50 [38] was 98.9 µM (inactive) and the GI50 [39] was > 100 µM (inactive). For the same molecule, the GI50 [40] was 29.6 µM (inactive), the GI50 [41] was 34.6 µM (inactive) and the GI50 [42] was 33 µM (inactive). For the same molecule, the GI50 [43] was > 100 µM (inactive), the GI50 [44] was 38.9 µM (inactive) and the GI50 [45] was 15.1 µM (inactive). The GI50 [46] was 34.6 µM (inactive), the GI50 [47] was 38.9 µM (inactive) and the GI50 [48] was 56 µM (inactive). For the same molecule, the GI50 [49] was 25.6 µM (inactive), the GI50 [50] was 24.5 µM (inactive) and the GI50 [51] was 59.2 µM (inactive). For the same molecule, the GI50 [52] was 68.2 µM (inactive), the GI50 [53] was 32.9 µM (inactive) and the GI50 [54] was 33.9 µM (inactive). For the same molecule, the GI50 [55] was 44 µM (inactive), the GI50 [56] was 32.5 µM (inactive) and the GI50 [57] was 43.1 µM.
